Results on one compound are retold here after patent US20240252472A1, “COMBINATIONS FOR TREATING CANCER” (Purdue Pharma L.P., priority 2023, published 2024).

One assay deals with MOLP-8 cells. Nature of the assay: Daratumumab cross-linking mediated apoptosis after EDO-S101 pre-treatment. In kind it is cell-based, human. To be noted: MOLP-8 pre-treated with EDO-S101 2.5 μM 48 h, daratumumab 1 μg/mL 24 h + F(ab)2; vs not pre-treated, p=0.0454. The method, then: (§1) ADCC, CDC and apoptosis via cross-linking To assess the effect of tinostamustine pre-treatment on cytotoxic mechanisms mediated by daratumumab, MM cell lines were first incubated in presence of tinostamustine (2.5 μM) or DMSO for 48 hours. Cells were then washed to remove tinostamustine or DMSO from the culture medium, and the corresponding cytotoxic assay (ADCC, CDC or apoptosis via cross-linking) was performed.
For the evaluation of ADCC, tinostamustine or DMSO pre-treated cells were cocultured with NK cells obtained from healthy donors in the presence of daratumumab (1 μg/ml) or the corresponding isotype control for 4 hours (ratio 1:1). […] In all three assays, the cytotoxic effect on MM cells was evaluated by flow cytometry with Annexin V/7AAD staining after treatment with daratumumab. […]
MM cells (MOLP-8 cells pre-treated with 0, 0.1, 0.5, 1 or 2.5 μM EDO-S101 for 48 hours in accordance with the methods outlined above) were incubated for 24 hours in the presence of 1 μg/mL daratumumab or the corresponding isotype control, along with 10 μg/mL F(ab)2 fragments for cross-linking. Apoptosis was evaluated by flow cytometry in accordance with the methods outlined above, using AnnexinV/7AAD staining. The effect of EDO-S101 on the crosslinking-mediated apoptosis induced by daratumumab was assessed using the following formula: […]

The subject of the next assay is CD38. Put plainly: CD38 expression by immunofluorescence in MM cell lines. Type of assay: cell-based, human. To be noted: RPMI-8226, MOLP-8; 2.5 μM; relative to DMSO control. The method, then: Immunofluorescence After appropriate treatments in vitro, cells were placed on glass slides coated with poly-L-lysine followed by 15 minutes incubation in a cell culture incubator. Cells were fixed with 4% paraformaldehyde for 30 minutes, blocked with BSA 100 μg/mL for 1 h at room temperature and incubated with a primary antibody (anti-CD38 antibody (1:100)) overnight at 4° C. The incubation with the anti-mouse secondary antibody, labelled with Alexa Fluor 488, was performed in darkness for 1 h at room temperature. After three washes for 5 min in PBS, nuclei were stained with DAPI (Sigma) 1:1000 in PBS for 5 min at room temperature. Finally, cells were washed three times for 10 min in PBS and slides were then mounted using VECTASHIELD Mounting Medium (Vector Laboratories, Burlingame, CA). Fluorescent images were acquired with a LEICA SP5 DMI-6000B confocal microscope (Leica, Wetzlar, Germany) with a 63.0× lens zoomed in 6×.

For a further assay, the system named is MM1S-luc derived tumors. Put plainly: Disseminated human myeloma model, CB17-SCID mice. In kind it is in vivo. As to conditions: EDO-S101 15 mg/kg i.v. weekly, daratumumab 8 mg/kg i.p. weekly, 4 weeks; vehicle 33 days. Here is the method:
MM1S-luc cells (3×10^6) were injected intravenously (i.v.) into CB17-SCID mice which were determined to have normal NK cells, monocytes and granulocytes (The Jackson Laboratory, Bar Harbor, ME, USA). Tumor development was monitored by non-invasive bioluminescence imaging (BLI) with a Xenogen IVIS 50 system (Caliper Life Sciences, Hopkinton, MA, USA). Mice were randomized into four groups (n=5/group): one receiving vehicle (i.v., weekly), another group receiving EDO-S101 (15 mg/kg i.v., weekly on Tuesdays), another group receiving daratumumab (8 mg/kg i.p., weekly on Wednesdays) and the last group receiving the double combination of EDO-S101+daratumumab. Both drugs were administered over a period of 4 weeks.
CB17-SCID mice bearing MM1S-luc derived tumors were treated with EDO-S101, daratumumab, a combination thereof, or vehicle, in accordance with the methods outlined above. MM1S-Luc cells (3×10^6) were intravenously injected into CB17-SCID mice. After 2 weeks, mice were randomized into four groups: one receiving vehicle (i.v., weekly), another group receiving EDO-S101 (15 mg/kg i.v., weekly on Tuesdays), another group receiving daratumumab (8 mg/kg i.p., weekly on Wednesdays) and the last group received the double combination of EDO-S101+daratumumab. Survival of mice analyzed with a Kaplan-Meier curve. Both drugs were administered over a period of 4 weeks.

For assay [1], the system named is MM cell lines (MM.1S, RPMI-8226, MOLP-8). Put plainly: Daratumumab-mediated ADCC on pre-treated MM cells. In kind it is cell-based, human. To be noted: pre-treatment 2.5 μM 48 hours, NK cells 1:1 + daratumumab 1 μg/mL, 4 hours, vs DMSO-pretreated. Here is the method:
as §1
For the evaluation of ADCC, tinostamustine or DMSO pre-treated cells were cocultured with NK cells obtained from healthy donors in the presence of daratumumab (1 μg/ml) or the corresponding isotype control for 4 hours (ratio 1:1). Briefly, peripheral blood mononuclear cells (PBMCs) were isolated from healthy donor buffy coats by Lymphoprep density gradient centrifugation. […] In all three assays, the cytotoxic effect on MM cells was evaluated by flow cytometry with Annexin V/7AAD staining after treatment with daratumumab. […]
MM cells (MM1.S, RPMI-8226, MOLP-8 cells pre-treated with 0 or 2.5 μM EDO-S101 in accordance with the methods outlined above) were co-cultured with NK-cells (ratio 1:1), in the presence of daratumumab (1 μg/mL) or the corresponding isotype control, for 4 hours at 37° C. […] ADCC was then evaluated using flow cytometry in accordance with the methods outlined above, using the following panel: CD38me-FITC/AnnexinV-PE/7AAD/CD45-APC.

Turning to `Cn1c(CCCCCCC(=O)NO)nc2cc(N(CCCl)CCCl)ccc21` [EDO-S101, 7-(5-(bis(2-chloroethyl)amino)-1-methyl-1H-benzo[d]imidazol-2-yl)-N-hydroxyheptanamide], in the assay on MOLP-8 cells, the “daratumumab-mediated apoptosis via cross-linking” value is listed as “higher”. Besides, in the assay on CD38, the “CD38 expression, immunofluorescence” value is reported as “increased”. In the assay on MM1S-luc derived tumors, the median survival is 45 days. In addition, the “percentage of dead myeloma cells, daratumumab-mediated ADCC” value in assay [1] is “significantly enhanced”; in assay [1] (listed as tinostamustine) it was “higher”.
